Tests used:
Type in all cases: in vivo
[1] = tested on: Avena fatua (AVEFA); experiment: Post-emergence herbicidal glasshouse test, Avena fatua; conditions: Avena fatua, 312 h, rate 250 g/ha, evaluated after 13 days, scale 100 = total damage to plant, 0 = no damage
Protocol: (§1) Seeds of a variety of test species were sown in standard soil in pots. After cultivation for one day (pre-emergence) or after 8 days cultivation (post-emergence) under controlled conditions in a glasshouse (at 24/16° C., day/night; 14 hours light; 65% humidity), the plants were sprayed with an aqueous spray solution derived from the formulation of the technical active ingredient in acetone/water (50:50) solution containing 0.5% Tween 20 (polyoxyethelyene sorbitan monolaurate, CAS RN 9005-64-5). The test plants were then grown in a glasshouse under controlled conditions in a glasshouse (at 24/16° C., day/night; 14 hours light; 65% humidity) and watered twice daily. After 13 days for pre and post-emergence, the test was evaluated ([…] to plant; 0=no damage to plant).
(§2) Setaria faberi (SETFA), Lolium perenne (LOLPE), Alopecurus myosuroides (ALOMY), Echinochloa crus-galli (ECHCG) and Avena fatua (AVEFA).

[2] = tested on: Lolium perenne (LOLPE); experiment: Pre-emergence herbicidal glasshouse test, Lolium perenne; conditions: 312 h, rate 250 g/ha, evaluated after 13 days, scale 100 = total damage to plant, 0 = no damage
Protocol: as §1, §2

[3] = tested on: Lolium perenne (LOLPE); experiment: Post-emergence herbicidal glasshouse test, Lolium perenne; conditions: 312 h, rate 250 g/ha, evaluated after 13 days, scale 100 = total damage to plant, 0 = no damage
Protocol: as §1, §2

[4] = tested on: Echinochloa crus-galli (ECHCG); experiment: Pre-emergence herbicidal glasshouse test, Echinochloa crus-galli; conditions: Echinochloa crus-galli, 312 h, rate 250 g/ha, evaluated after 13 days, scale 100 = total damage to plant, 0 = no damage
Protocol: as §1, §2

[5] = tested on: Alopecurus myosuroides (ALOMY); experiment: Post-emergence herbicidal glasshouse test, Alopecurus myosuroides; conditions: Alopecurus myosuroides, 312 h, rate 250 g/ha, evaluated after 13 days, scale 100 = total damage to plant, 0 = no damage
Protocol: as §1, §2

[6] = tested on: Alopecurus myosuroides (ALOMY); experiment: Pre-emergence herbicidal glasshouse test, Alopecurus myosuroides; conditions: Alopecurus myosuroides, 312 h, rate 250 g/ha, evaluated after 13 days, scale 100 = total damage to plant, 0 = no damage
Protocol: as §1, §2

[7] = tested on: Echinochloa crus-galli (ECHCG); experiment: Post-emergence herbicidal glasshouse test, Echinochloa crus-galli; conditions: Echinochloa crus-galli, 312 h, rate 250 g/ha, evaluated after 13 days, scale 100 = total damage to plant, 0 = no damage
Protocol: as §1, §2

[8] = tested on: Avena fatua (AVEFA); experiment: Pre-emergence herbicidal glasshouse test, Avena fatua; conditions: Avena fatua, 312 h, rate 250 g/ha, evaluated after 13 days, scale 100 = total damage to plant, 0 = no damage
Protocol: as §1, §2

Row | Compound | pest or weed control at 250 g/ha [1] [%] | pest or weed control at 250 g/ha [2] [%] | pest or weed control at 250 g/ha [3] [%] | pest or weed control at 250 g/ha [4] [%] | pest or weed control at 250 g/ha [5] [%] | pest or weed control at 250 g/ha [6] [%] | pest or weed control at 250 g/ha [7] [%] | pest or weed control at 250 g/ha [8] [%]
1 | CCc1cc(-c2cccc(Cl)c2)ccc1C1=C(O)C(C)(C)OC(C)(C)C1=O [Compound A-95] | 50 | 30 | 80 | 30 | 80 | 10 | 80 | 0
2 | CCc1cc(-c2ccccc2)ccc1C1=C(O)C(C)(C)OC(C)(C)C1=O [Compound A-96] | 10 | 0 | 80 | 20 | 80 | 0 | 90 | 10
3 | CCc1cc(-c2cc(Cl)cc(Cl)c2)ccc1C1=C(O)C(C)(C)OC(C)(C)C1=O [Compound A-99] | 90 | 60 | 90 | 30 | 90 | 10 | 100 | 0
4 | CCc1cc(-c2ccc(F)cc2)ccc1C1=C(O)C(C)(COC)OC(C)(C)C1=O (centres unmarked) [Compound A-101] | 100 | 90 | 100 | 50 | 100 | 70 | 100 | 50
5 | CCc1cc(-c2ccc(F)cc2)ccc1C1=C(O)C(C)(CC)OC(C)(C)C1=O (centres unmarked) [Compound A-102] | 80 | 70 | 90 | 30 | 100 | 60 | 90 | 10
6 | CCc1cc(-c2ccc(F)cc2)ccc1C1=C(O)C2(CCCC2)OC(C)(C)C1=O [Compound A-103] | 10 | 20 | 60 | 20 | 60 | 20 | 90 | 0
7 | CCc1cc(-c2ccc(F)cc2)ccc1C1=C(O)C(C)(CC)OC(C)(CC)C1=O (centres unmarked) [Compound A-104] | 10 | 60 | 60 | 40 | 90 | 50 | 90 | 0
8 | CCc1cc(-c2ccc(F)cc2)ccc1C1=C(O)C(C)OC(C)(C)C1=O (centres unmarked) [Compound A-105] | 30 | 40 | 90 | 20 | 80 | 40 | 90 | 0
9 | CCc1cc(-c2ccc(F)c(OC)c2)ccc1C1=C(O)C(C)(COC)OC(C)(C)C1=O (centres unmarked) [Compound A-112] | 80 | 90 | 90 | 100 | 80 | 80 | 100 | 80
10 | CCc1cc(-c2ccc(F)c(F)c2)ccc1C1=C(O)C(C)(COC)OC(C)(C)C1=O (centres unmarked) [Compound A-113] | 90 | 100 | 100 | 100 | 100 | 100 | 100 | 90
11 | CCc1cc(-c2cc(F)c(F)c(F)c2)ccc1C1=C(O)C(C)(COC)OC(C)(C)C1=O (centres unmarked) [Compound A-114] | 90 | 100 | 100 | 100 | 90 | 90 | 100 | 90
12 | CCc1cc(-c2c(F)cc(F)cc2F)ccc1C1=C(O)C(C)(COC)OC(C)(C)C1=O (centres unmarked) [Compound A-116] | 60 | 70 | 70 | 100 | 90 | 90 | 100 | 60
13 | CCc1cc(-c2ccc(F)c(F)c2F)ccc1C1=C(O)C(C)(COC)OC(C)(C)C1=O (centres unmarked) [Compound A-117] | 80 | 60 | 80 | 90 | 90 | 70 | 100 | 40
14 | CCc1cc(-c2ccc(F)c(OC)c2)ccc1C1=C(O)C(C)(CC)OC(C)(C)C1=O (centres unmarked) [Compound A-118] | 80 | 90 | 80 | 40 | 60 | 20 | 90 | 0
15 | CCc1cc(-c2ccc(F)c(F)c2)ccc1C1=C(O)C(C)(CC)OC(C)(C)C1=O (centres unmarked) [Compound A-119] | 90 | 60 | 90 | 30 | 100 | 40 | 100 | 10
16 | CCc1cc(-c2cc(F)c(F)c(F)c2)ccc1C1=C(O)C(C)(CC)OC(C)(C)C1=O (centres unmarked) [Compound A-120] | 100 | 90 | 100 | 70 | 100 | 60 | 100 | 40
17 | CCc1cc(-c2cc(F)c(F)cc2F)ccc1C1=C(O)C(C)(CC)OC(C)(C)C1=O (centres unmarked) [Compound A-122] | 30 | 0 | 70 | 10 | 90 | 20 | 70 | 0
18 | CCc1cc(-c2ccc(F)c(F)c2F)ccc1C1=C(O)C(C)(CC)OC(C)(C)C1=O (centres unmarked) [Compound A-123] | 80 | 0 | 80 | 0 | 80 | 0 | 90 | 0
19 | CCc1cc(-c2ccc(F)c(F)c2)ccc1C1=C(O)C2(CCCC2)OC(C)(C)C1=O [Compound A-125] | 10 | 0 | 30 | 0 | 50 | 0 | 70 | 0
20 | CCc1cc(-c2cc(F)c(F)c(F)c2)ccc1C1=C(O)C2(CCCC2)OC(C)(C)C1=O [Compound A-126] | 20 | 10 | 40 | 10 | 40 | 10 | 70 | 0
21 | CCc1cc(-c2ccc(F)c(OC)c2)ccc1C1=C(O)C(C)(CC)OC(C)(CC)C1=O (centres unmarked) [Compound A-128] | 70 | 20 | 60 | 40 | 60 | 10 | 80 | 0
22 | CCc1cc(-c2ccc(F)c(F)c2)ccc1C1=C(O)C(C)(CC)OC(C)(CC)C1=O (centres unmarked) [Compound A-129] | 70 | 30 | 80 | 90 | 90 | 30 | 90 | 10
